Source: ChEMBL document CHEMBL4270588, “Bioactive heterocycles containing a 3,4,5-trimethoxyphenyl fragment exerting potent antiproliferative activity through microtubule destabilization” (Eur J Med Chem, 2018)
Active and inactive are the calls of the source. The rule behind the calls is not given here.

Experiments:
[1] = test system: MGC-803; test: Antiproliferative activity against human MGC803 cells after 48 hrs by MTT assay; format: functional, cell-based; conditions: MGC-803, 48 h
[2] = test system: ECa-109 cell line; test: Antiproliferative activity against human EC109 cells after 48 hrs by MTT assay; format: functional, cell-based; conditions: ECa-109, 48 h
[3] = test system: PC-3; test: Antiproliferative activity against human PC3 cells after 48 hrs by MTT assay; format: functional, cell-based; conditions: PC-3, 48 h
[4] = species: Homo sapiens; test: Inhibition of EBI binding to beta-tubulin colchicine binding site in human MGC803 cells at 5 uM preincubated for 2 hrs followed by EBI addition and measured after 2 hrs by Western blot analysis; format: cell-based
[5] = biological target: Tubulin; test: Inhibition of tubulin polymerization (unknown origin) by turbidimetric method; format: protein-complex assay, Homo sapiens
[6] = test system: MGC-803; test: Induction of apoptosis in human MGC803 cells assessed as early apoptotic cells at 400 nM after 48 hrs by Annexin-V-FITC/propidium iodide staining based flow cytometry (reference value: 2.5%); format: functional
[7] = test system: MGC-803; test: Disruption of mitochondrial membrane potential in human MGC803 cells after 48 hrs by JC1 staining based flow cytometry; format: functional, cell-based
[8] = test system: MGC-803; test: Cell cycle arrest in human MGC803 cells assessed as accumulation at G2 phase at 400 nM after 48 hrs by propidium iodide staining based flow cytometry (reference value: 8.76%); format: functional
[9] = test system: MGC-803; test: Cell cycle arrest in human MGC803 cells assessed as accumulation at S phase at 400 nM after 48 hrs by propidium iodide staining based flow cytometry (reference value: 24.8%); format: functional
[10] = test system: MGC-803; test: Induction of apoptosis in human MGC803 cells assessed as late apoptotic cells at 400 nM after 48 hrs by Annexin-V-FITC/propidium iodide staining based flow cytometry (reference value: 1%); format: functional
[11] = biological target: Tubulin; test: Inhibition of tubulin polymerization (unknown origin) measured every 5 mins by fluorescence assay; format: protein-complex assay, Homo sapiens
[12] = test system: MGC-803; test: Disruption of mitochondrial membrane potential in human MGC803 cells assessed as intact mitochondrial membrane at 600 nM after 48 hrs by JC1 staining based flow cytometry (reference value: 3.9%); format: functional
[13] = test system: MGC-803; test: Induction of apoptosis in human MGC803 cells assessed as live cells at 400 nM after 48 hrs by Annexin-V-FITC/propidium iodide staining based flow cytometry (reference value: 96.4%); format: functional
[14] = test system: MGC-803; test: Induction of apoptosis in human MGC803 cells assessed as late apoptotic cells at 200 nM after 48 hrs by Annexin-V-FITC/propidium iodide staining based flow cytometry (reference value: 1%); format: functional
[15] = biological target: Tubulin (Homo sapiens) (UniProt P68371+Q9H4B7+P0DPH7+P68366+Q13509+Q71U36+P04350+Q3ZCM7+P07437+P68363+Q9BQE3+Q6PEY2+Q13885+Q9BVA1+Q9BUF5); test: Inhibition of tubulin polymerization in human MGC803 cells assessed as depolymerization of interphase microtubules at 600 nM after 4 to 8 hrs by DAPI staining based microscopic analysis; format: cell-based
[16] = test system: MGC-803; test: Induction of apoptosis in human MGC803 cells assessed as late apoptotic cells at 600 nM after 48 hrs by Annexin-V-FITC/propidium iodide staining based flow cytometry (reference value: 1%); format: functional
[17] = test system: MGC-803; test: Cell cycle arrest in human MGC803 cells assessed as accumulation at G1 phase at 200 nM after 48 hrs by propidium iodide staining based flow cytometry (reference value: 62.61%); format: functional
[18] = test system: MGC-803; test: Induction of apoptosis in human MGC803 cells assessed as decrease in XIAP level after 48 hrs by Western blot analysis; format: functional, cell-based
[19] = test system: MGC-803; test: Induction of apoptosis in human MGC803 cells assessed as early apoptotic cells at 200 nM after 48 hrs by Annexin-V-FITC/propidium iodide staining based flow cytometry (reference value: 2.5%); format: functional
[20] = test system: MGC-803; test: Disruption of mitochondrial membrane potential in human MGC803 cells assessed as intact mitochondrial membrane at 200 nM after 48 hrs by JC1 staining based flow cytometry (reference value: 3.9%); format: functional
[21] = test system: MGC-803; test: Induction of apoptosis in human MGC803 cells assessed as early apoptotic cells at 600 nM after 48 hrs by Annexin-V-FITC/propidium iodide staining based flow cytometry (reference value: 2.5%); format: functional
[22] = test system: MGC-803; test: Disruption of mitochondrial membrane potential in human MGC803 cells assessed as collapse of the mitochondrial membrane potential at 200 nM after 48 hrs by JC1 staining based flow cytometry (reference value: 96.1%); format: functional
[23] = test system: MGC-803; test: Induction of apoptosis in human MGC803 cells assessed as decrease in Bcl2 level after 48 hrs by Western blot analysis; format: functional, cell-based
[24] = test system: MGC-803; test: Cell cycle arrest in human MGC803 cells assessed as down regulation of CDK1 expression after 48 hrs by Western blot analysis; format: functional, cell-based
[25] = test system: MGC-803; test: Disruption of mitochondrial membrane potential in human MGC803 cells assessed as collapse of the mitochondrial membrane potential at 600 nM after 48 hrs by JC1 staining based flow cytometry (reference value: 96.1%); format: functional
[26] = test system: MGC-803; test: Induction of apoptosis in human MGC803 cells assessed as live cells at 200 nM after 48 hrs by Annexin-V-FITC/propidium iodide staining based flow cytometry (reference value: 96.4%); format: functional
[27] = species: Homo sapiens; test: Inhibition of EBI binding to beta-tubulin colchicine binding site in human MGC803 cells at […] preincubated for 2 hrs followed by EBI addition and measured after 2 hrs by Western blot analysis; format: cell-based
[28] = test system: MGC-803; test: Cell cycle arrest in human MGC803 cells assessed as down regulation of cyclin B1 expression after 48 hrs by Western blot analysis; format: functional, cell-based
[29] = test system: MGC-803; test: Induction of apoptosis in human MGC803 cells assessed as decrease in PARP level after 48 hrs by Western blot analysis; format: functional, cell-based
[30] = test system: MGC-803; test: Induction of apoptosis in human MGC803 cells assessed as live cells at 600 nM after 48 hrs by Annexin-V-FITC/propidium iodide staining based flow cytometry (reference value: 96.4%); format: functional
[31] = test system: MGC-803; test: Disruption of mitochondrial membrane potential in human MGC803 cells assessed as intact mitochondrial membrane at 400 nM after 48 hrs by JC1 staining based flow cytometry (reference value: 3.9%); format: functional
[32] = test system: MGC-803; test: Induction of apoptosis in human MGC803 cells assessed as necrotic cells at 400 nM after 48 hrs by Annexin-V-FITC/propidium iodide staining based flow cytometry (reference value: 0.1%); format: functional
[33] = test system: MGC-803; test: Cell cycle arrest in human MGC803 cells assessed as accumulation at G2 phase at 200 nM after 48 hrs by propidium iodide staining based flow cytometry (reference value: 8.76%); format: functional
[34] = test system: MGC-803; test: Disruption of mitochondrial membrane potential in human MGC803 cells assessed as collapse of the mitochondrial membrane potential at 400 nM after 48 hrs by JC1 staining based flow cytometry (reference value: 96.1%); format: functional
[35] = test system: MGC-803; test: Cell cycle arrest in human MGC803 cells assessed as accumulation at G1 phase at 400 nM after 48 hrs by propidium iodide staining based flow cytometry (reference value: 62.61%); format: functional
[36] = test system: MGC-803; test: Cell cycle arrest in human MGC803 cells assessed as accumulation at S phase at 200 nM after 48 hrs by propidium iodide staining based flow cytometry (reference value: 24.8%); format: functional
[37] = test system: MGC-803; test: Induction of apoptosis in human MGC803 cells assessed as necrotic cells at 200 nM after 48 hrs by Annexin-V-FITC/propidium iodide staining based flow cytometry (reference value: 0.1%); format: functional
[38] = test system: MGC-803; test: Induction of apoptosis in human MGC803 cells assessed as necrotic cells at 600 nM after 48 hrs by Annexin-V-FITC/propidium iodide staining based flow cytometry (reference value: 0.1%); format: functional

`COc1ccc(CN(C(=O)CSc2nc3ccccc3[nH]2)c2cc(OC)c(OC)c(OC)c2)cc1` was tested, and the IC50 [1] was 1230 nM, the IC50 [2] was 42.6 µM and the IC50 [3] was 14.3 µM.

Compound `COc1ccc(CN(C(=O)CSc2nc3ccc(OC)cc3s2)c2cc(OC)c(OC)c(OC)c2)cc1` has an IC50 [1] of 1270 nM, an IC50 [2] of over 80 µM and an IC50 [3] of 20.2 µM.

`COc1cc2c(c(OC)c1OC)-c1ccc(OC)c(=O)cc1[C@@H](NC(C)=O)CC2` [COLCHICINE] gave an IC50 [1] of 177 nM, an IC50 [2] of 1.24 µM and an IC50 [3] of 0.13 µM. For the same compound, the inhibition [4] was “Active”.

`COc1ccc(CN(C(=O)CCCCSc2nc3ccccc3o2)c2cc(OC)c(OC)c(OC)c2)cc1` gave an IC50 [1] of 1360 nM, an IC50 [2] of 7.65 µM and an IC50 [3] of 45.6 µM.

For `COc1ccc(CN(C(=O)CSc2nncs2)c2cc(OC)c(OC)c(OC)c2)cc1`, the IC50 [1] was 1150 nM, the IC50 [2] was 9.84 µM and the IC50 [3] was 5.53 µM.

Compound `COc1ccc(CN(C(=O)CCCSc2nc3ccccc3o2)c2cc(OC)c(OC)c(OC)c2)cc1` has an IC50 [1] of 1290 nM, an IC50 [2] of 11 µM and an IC50 [3] of 32.7 µM.

Compound `Cc1ccc(S(=O)(=O)NCc2cn(Cc3cccc(Oc4ccccc4)c3)nn2)cc1` has an IC50 [5] of 2410 nM.

`COc1ccc(CN(C(=O)CSc2nnnn2C)c2cc(OC)c(OC)c(OC)c2)cc1` showed an IC50 [1] of 2490 nM, an IC50 [2] of 5.54 µM and an IC50 [3] of 10.5 µM.

For `COc1ccc(CN(C(=O)CCSc2nc3ccccc3o2)c2cc(OC)c(OC)c(OC)c2)cc1`, the IC50 [1] was 640 nM, the IC50 [2] was 12.6 µM and the IC50 [3] was 20.2 µM.

In the case of `COc1ccc(CN(C(=O)CSc2nc3ccccc3o2)c2cc(OC)c(OC)c(OC)c2)cc1`, the IC50 [1] is reported as 450 nM, the Activity [6] is reported as 4.1% and the Activity [7] is reported as “Dose-dependent effect”. For the same compound, the Activity [8] was 20.71%, the Activity [9] was 22.46% and the Activity [10] was 4.3%. It also gave an IC50 [11] of 3.35 µM, an IC50 [2] of 24.8 µM and an Activity [12] of 47.2%. For the same compound, the Activity [13] was 89.7%, the Activity [14] was 1.1% and the inhibition [15] was “Active”. For the same compound, the Activity [16] was 30.3%, the Activity [17] was 61.68% and the Activity [18] was “Dose-dependent effect”. It also gave an Activity [19] of 2.8%, an Activity [20] of 96.1% and an Activity [21] of 4.9%. The Activity [22] was 3.9%, the Activity [23] was “Dose-dependent effect” and the Activity [24] was “Dose-dependent effect”. For the same compound, the Activity [25] was 52.8%, the Activity [26] was 95.9% and the inhibition [27] was “Active”. The IC50 [3] was 3.53 µM, the Activity [28] was “Dose-dependent effect” and the Activity [29] was “Dose-dependent effect”. For the same compound, the Activity [30] was 61.7%, the Activity [31] was 60.1% and the Activity [32] was 1.9%. It also gave an Activity [33] of 12.13%, an Activity [34] of 39.9% and an Activity [35] of 52.55%. The Activity [36] was 23.29%, the Activity [37] was 0.1% and the Activity [38] was 3.1%.

Work on `COc1ccc(CN(C(=O)CSc2ccccn2)c2cc(OC)c(OC)c(OC)c2)cc1` yielded an IC50 [1] of 2410 nM, an IC50 [2] of 16 µM and an IC50 [3] of 7.51 µM.
